Data reported in US20220387365A1, “TUCARESOL DERIVATIVES AND USES THEREOF” (BeyondSpring Pharmaceuticals, Inc., priority 2019, published 2022).

Assays:
MC38 tumor cells = test: Tumor volume in subcutaneous syngeneic colorectal cancer model MC38 (Example 10); type: in vivo,  mice
Protocol: MC38 tumor cells were maintained in vitro with DMEM medium supplemented with 10% fetal bovine serum at 37° C. in an atmosphere of 5% CO2 in air. The cells in exponential growth phase were harvested and quantitated by cell counter before tumor inoculation. Each mouse was inoculated subcutaneously in the right lower flank with 1×10^6 MC38 tumor cells in 0.1 ml of PBS for tumor development.
The randomization was started when the mean tumor size reached approximately 145 mm^3. 108 mice were enrolled in the study. All animals were randomly allocated to 9 study groups. Randomization by tumor volume was performed based on “Matched distribution” method/ “Stratified” method (StudyDirector™ software, version 3.1.399.19)/randomized block design.
Tumor volumes were measured three times a week after randomization in two dimensions using a caliper, and the volume was expressed in mm^3 using the formula: V=(L×W×W)/2, where V is tumor volume, L is tumor length (the longest tumor dimension) and W is tumor width (the longest tumor dimension perpendicular to L). Dosing as well as tumor and body weight measurements were conducted in a Laminar Flow Cabinet. The body weights and tumor volumes were measured by using StudyDirector™ software (version 3.1.399.19).
The treatment was initiated following randomization.
Tumor growth inhibition (TGI): TGI% is an indication of antitumor activity, and expressed as: TGI (%)=100×(1−T/C). T and C are the mean tumor volume (or weight) of the treated and control groups, respectively, on a given day. Statistical analysis of the difference in mean tumor volume among the groups was conducted using the method time to survival event/euthanasia. Individual mice were euthanized when tumor volume exceeded 3000mm^3. The study was ultimately terminated at Day 36.
To compare tumor volumes of different groups at a pre-specified day, Bartlett's test was used to check the assumption of homogeneity of variance across all groups. When the p-value of Bartlett's test was >=0.05, one-way ANOVA was runto test overall equality of means across all groups. If the p-value of the one-way ANOVA was <0.05, was performed post hoc testing by running Tukey's HSD (honest significant difference) tests for all pairwise comparisons, and Dunnett's tests for comparing each treatment group with the vehicle group. When the p-value of Bartlett's test was <0.05, was run Kruskal-Wallis test to test overall equality of medians among all groups. If the p-value the Kruskal-Wallis test was <0.05, was performed post hoc testing by running Conover's non-parametric test for all pairwise comparisons or for comparing each treatment group with the vehicle group, both with single-step p-value adjustment.
In addition, pairwise comparisons were performed without multiple comparison correction and reported nominal/uncorrected p-values directly from Welch's t-test or Mann-Whitney U test. Specifically, Bartlett's test was used to check the assumption of homogeneity of variance for a pair of groups. When the p-value of Bartlett's test was >0.05, Welch's t-test was run, otherwise Mann-Whitney U test was run, to obtain nominal p-values. Survival curves were compared between groups by logrank (Mantel-Cox) test.
All statistical analyses had been done in R-a language and environment for statistical computing and graphics (version 3.3.1). All tests were two-sided unless otherwise specified, and p-values of <0.05 were regarded as statistically significant.
Kaplan-Meier plot showing percent survival of mice treated with G1 to G9. A mouse whose tumor volume exceeded 3000 mm^3 was sacrificed and scored in the Kaplan-Meier plot. Tables 13.1 and 13.2 below describes the tumor growth inhibition with data collected over 24 days. Tables 14.1 and 14.2 below describes mean body weight.

Hepa 1-6 tumor cells = test: In vivo efficacy in subcutaneous Hepa 1-6 mouse liver cancer model; set-up: species or system C57BL/6 mice; settings: p.o.
Protocol: The study evaluated preclinically in vivo therapeutic efficacy of tucaresol and Compound C02 as a single agent in the treatment of subcutaneous Hepa 1-6 liver cancer models in C57BL/6 mice.
Cell Culture: The Hepa 1-6 tumor cells were maintained in vitro as a monolayer culture in DMEM medium supplemented with 10% fetal bovine serum at 37° C. in an atmosphere of 5% CO2 in air. The cells in an exponential growth phase were harvested and counted for tumor inoculation.
Tumor Inoculation: Each C57BL/6 mouse was subcutaneously inoculated at the right flank with Hepa 1-6 tumor cells (5×10^6) in 0.1 ml of PBS for tumor development. The date of tumor cell inoculation was denoted as day 0.
Randomization: The randomization started when the mean tumor size reached approximately 100-150 mm^3 in each model. […]
After tumor cell inoculation, the animals were checked daily for morbidity and mortality. During routine monitoring, the animals were checked for any effects of tumor growth and treatments on behavior such as mobility, food and water consumption, body weight gain/loss (body weights will be measured twice per week after randomization), eye/hair matting and any other abnormalities. Mortality and observed clinical signs were recorded for individual animals in detail. […]
Tumor growth inhibition (TGI): TGI % is an indication of antitumor activity, and expressed as: TGI (%)=100×(1−T/C). […]

## O=Cc1c(OCc2ccc(C(=O)O)cc2)cccc1OC1O[C@H](CO)[C@@H](O)[C@H](O)[C@H]1O (some centres unmarked) [Compound C02]
MC38 tumor cells; 20 mg/kg C02 (Group 4) against anti-PD1 alone (Group 3), FIG. 5A
  antitumor efficacy of the combination (in words): significantly increased the antitumor efficacy of anti-PDA1 administered alone
MC38 tumor cells; Day 1
  Mean Tumor Volumes: 145 ± 5.46 mm^3
MC38 tumor cells; Day 4
  Mean Tumor Volumes: 215.49 ± 15.14 mm^3
MC38 tumor cells; Day 8
  Mean Tumor Volumes: 590.08 ± 59.54 mm^3
MC38 tumor cells; Day 10
  Mean Tumor Volumes: 1048.2 ± 89.19 mm^3
MC38 tumor cells; Day 12
  Mean Tumor Volumes: 1750.55 ± 154.11 mm^3
MC38 tumor cells; Day 15
  Mean Tumor Volumes: 2847.19 ± 242.97 mm^3
Hepa 1-6 tumor cells
  efficacy of once a day for five days (QD×5) against every-other-day administration: greater efficacy than every-other-day administration
